Here are results for 17 molecules from patent publication US11596639B2, “Substituted indole Mcl-1 inhibitors” (Vanderbilt University, priority 2016, dated 2023).

Test [1] deals with H929 human cancer cell lines. Put plainly: Cellular viability / proliferation (Cell TiterGlo, 72 h). It is filed as cell-based. Put shortly:
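Compounds were added as 2-fold serial dilutions from 50 μM (final DMSO <1%) to H929 cells seeded 1,000 per well in 10% FBS medium one day earlier.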
For orientation: Cellular ATP, detected with luciferase, serves as a proxy for viable cell number.

Another test has as its target Mcl-1 (Homo sapiens (Human), UniProt Q07820). Put plainly: Fluorescence polarization anisotropy (FPA) competition assay, FITC-Bak or FITC-Bim BH3 peptide. The note with it: read-out: Ki for Inhibition of Mcl-1 by FPA assay. It is filed as binding. (In general: In fluorescence polarisation assays a small probe gives low polarisation when free and higher when bound to something large.)

The mark [2] stands for this setting: Homo sapiens, NCI-H929, 72 h, read-out: GI50 on cellular proliferation of H929 human cancer cell lines, H929 cells, 72 h, Cell TiterGlo, 10% FBS.

SMILES strings stand for the structures. Like-named read-outs stand apart in the source and are kept apart here.

Sequence of Mcl-1 (Q07820 172-327): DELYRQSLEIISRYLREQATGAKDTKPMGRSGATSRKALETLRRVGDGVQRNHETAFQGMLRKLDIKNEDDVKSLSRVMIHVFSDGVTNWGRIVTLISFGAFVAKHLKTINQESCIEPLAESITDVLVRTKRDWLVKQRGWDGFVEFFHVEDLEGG

Consider `Cc1cc(OCCCc2c3n(c4c(-c5c(C)nn(C)c5C)c(Cl)ccc24)[C@H](C)CN(c2cn(C)c4ccc(C(=O)Nc5ccccn5)cc24)C3=O)cc(C)c1Cl` [Example 280, 3-[(4R)-7-chloro-10-[3-(4-chloro-3,5-dimethyl-phenoxy)propyl]-4-methyl-1-oxo-6-(1,3,5-trimethylpyrazol-4-yl)-3,4-dihydropyrazino[1,2-a]indol-2-yl]-1-methyl-N-(2-pyridyl)indole-5-carboxamide], for which the GI50 in test [1] (setting [2]) is 2.2 µM. For the same molecule, the inhibition constant (Ki) (in general, the equilibrium dissociation constant of an inhibitor or competing ligand from its target) on Mcl-1 was found to be 0.0015 µM.
For `Cc1cc(OCCCc2c3n(c4c(-c5c(C)nn(C)c5C)c(Cl)ccc24)[C@H](C)CN(c2cn(C)c4ccc(C(=O)NCc5ccccn5)cc24)C3=O)cc(C)c1Cl` [Example 281, 3-[(4R)-7-chloro-10-[3-(4-chloro-3,5-dimethyl-phenoxy)propyl]-4-methyl-1-oxo-6-(1,3,5-trimethylpyrazol-4-yl)-3,4-dihydropyrazino[1,2-a]indol-2-yl]-1-methyl-N-(2-pyridylmethyl)indole-5-carboxamide], the GI50 in test [1] (setting [2]) stood at 1.4 µM. For the same molecule, the Ki on Mcl-1 came out at 0.0022 µM.
As to `Cc1cc(OCCCc2c3n(c4c(-c5c(C)nn(C)c5C)c(Cl)ccc24)[C@H](C)CN(c2cn(C)c4ccc(C(=O)N(C)Cc5cccnc5)cc24)C3=O)cc(C)c1Cl` [Example 282, 3-[(4R)-7-chloro-10-[3-(4-chloro-3,5-dimethyl-phenoxy)propyl]-4-methyl-1-oxo-6-(1,3,5-trimethylpyrazol-4-yl)-3,4-dihydropyrazino[1,2-a]indol-2-yl]-N,1-dimethyl-N-(3-pyridylmethyl)indole-5-carboxamide], the GI50 in test [1] (setting [2]) is 2.4 µM. Besides, the Ki on Mcl-1 worked out at 0.0084 µM.
For `Cc1cc(OCCCc2c3n(c4c(-c5c(C)nn(C)c5C)c(Cl)ccc24)[C@H](C)CN(c2cn(C)c4ccc(C(=O)Nc5ccncc5)cc24)C3=O)cc(C)c1Cl` [Example 283, 3-[(4R)-7-chloro-10-[3-(4-chloro-3,5-dimethyl-phenoxy)propyl]-4-methyl-1-oxo-6-(1,3,5-trimethylpyrazol-4-yl)-3,4-dihydropyrazino[1,2-a]indol-2-yl]-1-methyl-N-(4-pyridyl)indole-5-carboxamide], in that order: 1.2 µM and 0.0012 µM.
The matching figures for `Cc1cc(OCCCc2c3n(c4c(-c5c(C)nn(C)c5C)c(Cl)ccc24)[C@H](C)CN(c2cn(C)c4ccc(C(=O)NCc5ccncc5)cc24)C3=O)cc(C)c1Cl` [Example 284, 3-[(4R)-7-chloro-10-[3-(4-chloro-3,5-dimethyl-phenoxy)propyl]-4-methyl-1-oxo-6-(1,3,5-trimethylpyrazol-4-yl)-3,4-dihydropyrazino[1,2-a]indol-2-yl]-1-methyl-N-(4-pyridylmethyl)indole-5-carboxamide]: 1.5 µM and 0.0036 µM.
With `Cc1cc(OCCCc2c3n(c4c(-c5c(C)nn(C)c5C)c(Cl)ccc24)[C@H](C)CN(c2cn(C)c4ccc(C(=O)Nc5ccccc5)cc24)C3=O)cc(C)c1Cl` [Example 285, 3-[(4R)-7-chloro-10-[3-(4-chloro-3,5-dimethyl-phenoxy)propyl]-4-methyl-1-oxo-6-(1,3,5-trimethylpyrazol-4-yl)-3,4-dihydropyrazino[1,2-a]indol-2-yl]-1-methyl-N-phenyl-indole-5-carboxamide], the GI50 in test [1] (setting [2]) was 5.3 µM. For the same molecule, the Ki on Mcl-1 is under 0.001 µM.
For `CNC(=O)c1ccc2c(c1)c(N1C[C@@H](C)n3c(c(CCCOc4cc(C)c(Cl)c(C)c4)c4ccc(Cl)c(-c5c(C)nn(C)c5C)c43)C1=O)cn2C` [Example 286, (R)-3-(7-chloro-10-(3-(4-chloro-3,5-dimethylphenoxy)propyl)-4-methyl-1-oxo-6-(1,3,5-trimethyl-1H-pyrazol-4-yl)-3,4-dihydropyrazino[1,2-a]indol-2(1H)-yl)-N,1-dimethyl-1H-indole-5-carboxamide], in that order: 0.51 µM and 0.0033 µM.
The matching figures for `Cc1cc(OCCCc2c3n(c4c(-c5c(C)nn(C)c5C)c(Cl)ccc24)[C@H](C)CN(c2cn(C)c4ccc(C(=O)NCc5cccnc5)cc24)C3=O)cc(C)c1Cl` [Example 287, 3-[(4R)-7-chloro-10-[3-(4-chloro-3,5-dimethyl-phenoxy)propyl]-4-methyl-1-oxo-6-(1,3,5-trimethylpyrazol-4-yl)-3,4-dihydropyrazino[1,2-a]indol-2-yl]-1-methyl-N-(3-pyridylmethyl)indole-5-carboxamide]: 1.6 µM and 0.003 µM.
Turning to `Cc1cc(OCCCc2c3n(c4c(-c5c(C)nn(C)c5C)c(Cl)ccc24)[C@H](C)CN(c2cn(C)c4ccccc24)C3=O)cc(C)c1Cl` [Example 288, (R)-7-chloro-10-(3-(4-chloro-3,5-dimethylphenoxy)propyl)-4-methyl-2-(1-methyl-1H-indol-3-yl)-6-(1,3,5-trimethyl-1H-pyrazol-4-yl)-3,4-dihydropyrazino[1,2-a]indol-1(2H)-one], the GI50 in test [1] (setting [2]) was determined as 8.4 µM. The Ki on Mcl-1 came out at 0.003 µM.
As for `Cc1cc(OCCCc2c3n(c4c(-c5c(C)nn(C)c5C)c(Cl)ccc24)[C@H](C)CN(c2cn(C)c4ccc(C(=O)N(C)C)cc24)C3=O)cc(C)c1Cl` [Example 289, 3-[(4R)-7-chloro-10-[3-(4-chloro-3,5-dimethyl-phenoxy)propyl]-4-methyl-1-oxo-6-(1,3,5-trimethylpyrazol-4-yl)-3,4-dihydropyrazino[1,2-a]indol-2-yl]-N,N,1-trimethyl-indole-5-carboxamide], the GI50 in test [1] (setting [2]) amounted to 5.2 µM. The Ki on Mcl-1 came to 0.015 µM.
Consider `Cc1cc(OCCCc2c3n(c4c(-c5c(C)nn(C)c5C)c(Cl)ccc24)[C@H](C)CN(c2cn(C)c4ccc(C(=O)N5CCCC5)cc24)C3=O)cc(C)c1Cl` [Example 290, (4R)-7-chloro-10-[3-(4-chloro-3,5-dimethyl-phenoxy)propyl]-4-methyl-2-[1-methyl-5-(pyrrolidine-1-carbonyl)indol-3-yl]-6-(1,3,5-trimethylpyrazol-4-yl)-3,4-dihydropyrazino[1,2-a]indol-1-one], for which the GI50 in test [1] (setting [2]) was determined as 5.3 µM. Further, on Mcl-1, the Ki was found to be 0.012 µM.
The matching figures for `Cc1cc(OCCCc2c3n(c4c(-c5c(C)nn(C)c5C)c(Cl)ccc24)[C@H](C)CN(c2cn(C)c4ccc(C(=O)Nc5cccnc5)cc24)C3=O)cc(C)c1Cl` [Example 291, 3-[(4R)-7-chloro-10-[3-(4-chloro-3,5-dimethyl-phenoxy)propyl]-4-methyl-1-oxo-6-(1,3,5-trimethylpyrazol-4-yl)-3,4-dihydropyrazino[1,2-a]indol-2-yl]-1-methyl-N-(3-pyridyl)indole-5-carboxamide]: 1 µM and 0.0011 µM.
For the molecule `Cc1cc(OCCCc2c3n(c4c(-c5c(C)nn(C)c5C)c(Cl)ccc24)[C@H](C)CN(c2cn(CCN4CCOCC4)c4cc(C(=O)O)ccc24)C3=O)cc(C)c1Cl` [Example 292, (R)-3-(7-chloro-10-(3-(4-chloro-3,5-dimethylphenoxy)propyl)-4-methyl-1-oxo-6-(1,3,5-trimethyl-1H-pyrazol-4-yl)-3,4-dihydropyrazino[1,2-a]indol-2(1H)-yl)-1-(2-morpholinoethyl)-1H-indole-6-carboxylic acid], the GI50 in test [1] (setting [2]) turned out to be 0.69 µM. Besides, the Ki at Mcl-1 was under 0.001 µM.
As to `Cc1cc(OCCCc2c3n(c4c(-c5c(C)nn(C)c5C)c(Cl)ccc24)[C@H](C)CN(c2cn(CCN4CCOCC4)c4cc(C(=O)O)ccc24)C3=O)cc(C)c1Cl` [Example 293, (R)-3-(7-chloro-10-(3-(4-chloro-3,5-dimethylphenoxy)propyl)-4-methyl-1-oxo-6-(1,3,5-trimethyl-1H-pyrazol-4-yl)-3,4-dihydropyrazino[1,2-a]indol-2(1H)-yl)-1-(2-morpholinoethyl)-1H-indole-6-carboxylic acid], the GI50 in test [1] (read-out: GI50 on cellular proliferation of H929 human cancer cell lines, H929 cells, 72 h, Cell TiterGlo, 10% FBS) came to 0.81 µM. Also, at Mcl-1, the Ki is under 0.001 µM.
With `Cc1cc(OCCCc2c3n(c4c(-c5c(C)nc(COCc6ccccc6)nc5C)c(Cl)ccc24)CCCN(c2cn(C)c4ccc(C(=O)O)cc24)C3=O)cc(C)c1Cl` [Example 294, 3-[7-[2-(benzyloxymethyl)-4,6-dimethyl-pyrimidin-5-yl]-8-chloro-11-[3-(4-chloro-3,5-dimethyl-phenoxy)propyl]-1-oxo-4,5-dihydro-3H-[1,4]diazepino[1,2-a]indol-2-yl]-1-methyl-indole-5-carboxylic acid], the GI50 in test [1] (setting [2]) was found to be 2 µM. In addition, the Ki at Mcl-1 was under 0.001 µM.
The matching figures for `Cc1cc(N2C[C@@H](C)n3c(c(CCCOc4cc(C)c(Cl)c(C)c4)c4ccc(Cl)c(-c5c(C)nn(C)c5C)c43)C2=O)c2c(c1)cc(C(=O)O)n2Cc1ccccn1` [Example 295, 7-[(4R)-7-chloro-10-[3-(4-chloro-3,5-dimethyl-phenoxy)propyl]-4-methyl-1-oxo-6-(1,3,5-trimethylpyrazol-4-yl)-3,4-dihydropyrazino[1,2-a]indol-2-yl]-5-methyl-1-(2-pyridylmethyl)indole-2-carboxylic acid]: under 0.2 µM and under 0.001 µM.
Take `Cc1cc(N2C[C@@H](C)n3c(c(CCCOc4cc(C)c(Cl)c(C)c4)c4ccc(Cl)c(-c5c(C)ncnc5C)c43)C2=O)c2c(c1)cc(C(=O)O)n2Cc1ccccn1` [Example 296, 7-[(4R)-7-chloro-10-[3-(4-chloro-3,5-dimethyl-phenoxy)propyl]-6-(4,6-dimethylpyrimidin-5-yl)-4-methyl-1-oxo-3,4-dihydropyrazino[1,2-a]indol-2-yl]-5-methyl-1-(2-pyridylmethyl)indole-2-carboxylic acid]: the GI50 in test [1] (setting [2]) turned out to be 0.24 µM. For the same molecule, the Ki on Mcl-1 was under 0.001 µM.
